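96-well plates; 48 h exposure; 5 concentrations. Endpoints by linear interpolation between flanking doses. Not reached: highest tested concentration assigned. GI50 = concentration required for 50% inhibition of growth. The concentration for full growth arrest is given as TGI.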
Experiments:
Assay in all cases: inhibition of tumour cell growth, NCI panel, 48 h
[1] = tested on: 786-0 renal
[2] = tested on: A498 renal
[3] = tested on: A549 NSCLC
[4] = tested on: ACHN renal
[5] = tested on: BT-549 breast
[6] = tested on: CAKI-1 renal
[7] = tested on: CCRF-CEM leukemia
[8] = tested on: COLO 205 colon
[9] = tested on: DU-145 prostate
[10] = tested on: EKVX NSCLC
[11] = tested on: HCC-2998 colon
[12] = tested on: HCT-116 colon
[13] = tested on: HCT-15 colon
[14] = tested on: HL-60(TB) leukemia
[15] = tested on: HOP-62 NSCLC
[16] = tested on: HOP-92 NSCLC
[17] = tested on: HS 578T breast
[18] = tested on: HT29 colon
[19] = tested on: IGROV1 ovarian
[20] = tested on: K-562 leukemia
[21] = tested on: KM12 colon
[22] = tested on: LOX IMVI melanoma
[23] = tested on: M14 melanoma
[24] = tested on: MALME-3M melanoma
[25] = tested on: MCF7 breast
[26] = tested on: MDA-MB-435
[27] = tested on: MDA-MB-468 breast
[28] = tested on: MOLT-4 leukemia
[29] = tested on: NCI-H226 lung
[30] = tested on: NCI-H23 lung
[31] = tested on: NCI-H460 lung
[32] = tested on: NCI-H522 lung
[33] = tested on: NCI/ADR-RES ovarian
[34] = tested on: OVCAR-3 ovarian
[35] = tested on: OVCAR-4 ovarian
[36] = tested on: OVCAR-5 ovarian
[37] = tested on: OVCAR-8 ovarian
[38] = tested on: PC-3 prostate
[39] = tested on: RPMI-8226 leukemia
[40] = tested on: RXF 393 renal
[41] = tested on: SF-268 CNS
[42] = tested on: SF-295 CNS
[43] = tested on: SF-539 CNS
[44] = tested on: SK-MEL-28 melanoma
[45] = tested on: SK-MEL-5 melanoma
[46] = tested on: SK-OV-3 ovarian
[47] = tested on: SN12C renal
[48] = tested on: SNB-19 CNS
[49] = tested on: SR leukemia
[50] = tested on: SW-620 colon
[51] = tested on: T-47D breast
[52] = tested on: TK-10 renal
[53] = tested on: U251 CNS
[54] = tested on: UACC-257 melanoma
[55] = tested on: UACC-62 melanoma

In the case of O=C(Nc1nc2ccc([N+](=O)[O-])cc2s1)Nc1cc(Cl)ccc1I, the GI50 [1] is reported as 7.32 µM, the TGI [1] is reported as 20.2 µM and the GI50 [2] is reported as 4.25 µM. For the same compound, the TGI [2] was 16.1 µM, the GI50 [3] was 9.8 µM and the TGI [3] was 21.6 µM. For the same compound, the GI50 [4] was 5.29 µM, the TGI [4] was 17.4 µM and the GI50 [5] was 3.56 µM. For the same compound, the TGI [5] was 14.5 µM, the GI50 [6] was 5.87 µM and the TGI [6] was 19.3 µM. The GI50 [7] was 3.4 µM, the TGI [7] was 12.4 µM and the GI50 [8] was 10.8 µM. For the same compound, the TGI [8] was 22.9 µM, the GI50 [9] was 8.17 µM and the TGI [9] was 20.6 µM. For the same compound, the GI50 [10] was 3.6 µM, the TGI [10] was 13.6 µM and the GI50 [11] was 4.7 µM. The TGI [11] was 16.2 µM, the GI50 [12] was 3.24 µM and the TGI [12] was 12 µM. The GI50 [13] was 4.04 µM, the TGI [13] was 15.6 µM and the GI50 [14] was 3.81 µM. For the same compound, the TGI [14] was 16.8 µM, the GI50 [15] was 9.29 µM and the TGI [15] was 21.7 µM. The GI50 [16] was 2.63 µM, the TGI [16] was 7.46 µM and the GI50 [17] was 4.71 µM. The TGI [17] was 20.8 µM, the GI50 [18] was 11.4 µM and the TGI [18] was 24.2 µM. For the same compound, the GI50 [19] was 4.49 µM, the TGI [19] was 15.8 µM and the GI50 [20] was 3.55 µM. It also gave a TGI [20] of 13.6 µM, a GI50 [21] of 5.29 µM and a TGI [21] of 17.7 µM. It also gave a GI50 [22] of 5.85 µM, a TGI [22] of 18.1 µM and a GI50 [23] of 10 µM. The TGI [23] was 22 µM, the GI50 [24] was 3.26 µM and the TGI [24] was 13.1 µM. For the same compound, the GI50 [25] was 3.05 µM, the TGI [25] was 12.1 µM and the GI50 [26] was 6.4 µM. For the same compound, the TGI [26] was 21 µM, the GI50 [27] was 3.54 µM and the TGI [27] was 10.6 µM. The GI50 [28] was 3.43 µM, the TGI [28] was 12 µM and the GI50 [29] was 7.18 µM. It also gave a TGI [29] of 20.5 µM, a GI50 [30] of 2.78 µM and a TGI [30] of 8.9 µM. It also gave a GI50 [31] of 4.16 µM, a TGI [31] of 15.7 µM and a GI50 [32] of 2.95 µM. The TGI [32] was 10.6 µM, the GI50 [33] was 4.85 µM and the TGI [33] was 18.1 µM. It also gave a GI50 [34] of 4.29 µM, a TGI [34] of 14.8 µM and a GI50 [35] of 5.28 µM. It also gave a TGI [35] of 19.3 µM, a GI50 [36] of 11.6 µM and a TGI [36] of 23.9 µM. It also gave a GI50 [37] of 12.9 µM, a TGI [37] of 26.7 µM and a GI50 [38] of 3.78 µM. It also gave a TGI [38] of 13.5 µM, a GI50 [39] of 2.24 µM and a TGI [39] of 5.66 µM. It also gave a GI50 [40] of 7.38 µM, a TGI [40] of 20.3 µM and a GI50 [41] of 9.35 µM. The TGI [41] was 23.9 µM, the GI50 [42] was 5.56 µM and the TGI [42] was 18.6 µM. The GI50 [43] was 5.09 µM, the TGI [43] was 17 µM and the GI50 [44] was 4.75 µM. For the same compound, the TGI [44] was 16.6 µM, the GI50 [45] was 2.7 µM and the TGI [45] was 7.52 µM. It also gave a GI50 [46] of 7.84 µM, a TGI [46] of 20.4 µM and a GI50 [47] of 4.06 µM. For the same compound, the TGI [47] was 15.8 µM, the GI50 [48] was 5.5 µM and the TGI [48] was 18.1 µM. For the same compound, the GI50 [49] was 3.16 µM, the TGI [49] was 12.4 µM and the GI50 [50] was 5.46 µM. It also gave a TGI [50] of 18.6 µM, a GI50 [51] of 3.7 µM and a TGI [51] of 14.5 µM. For the same compound, the GI50 [52] was 8.2 µM, the TGI [52] was 20.7 µM and the GI50 [53] was 5.36 µM. It also gave a TGI [53] of 17.8 µM, a GI50 [54] of 6.8 µM and a TGI [54] of 19.9 µM. The GI50 [55] was 4.11 µM and the TGI [55] was 15.4 µM.
